This note sets out measurements from PubChem BioAssay (NCI).

Each structure is given as a SMILES string. “And” between values parts separate entries of the source, which are not always exact repeats. Equal entries are not always repeated.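 Assay format: 96-well plates, 48-hour exposure. GI50: concentration for 50% inhibition of growth. TGI: concentration producing complete growth inhibition.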

Among the test systems are HOP-62 NSCLC; M14 melanoma; NCI-H23 lung; OVCAR-3 ovarian; SF-295 CNS; SK-MEL-5 melanoma; SK-OV-3 ovarian; SR leukemia; SW-620 colon; OVCAR-8 ovarian.
Holding throughout (assay): DTP human tumour cell line panel, 48 h

On to `O=C1CCCC[C@H]1[C@H]1CCC[C@@H]([C@H]2CCCCC2=O)C1=O`, for which the TGI in the experiment on HOP-62 NSCLC, in the experiment with M14 melanoma, in the experiment with NCI-H23 lung, in the experiment with OVCAR-3 ovarian, in the experiment with SF-295 CNS and in the experiment with SK-MEL-5 melanoma was greater than 100 µM in each case. Besides, the TGI with SK-OV-3 ovarian, with SR leukemia and with SW-620 colon was greater than 100 µM each time.

As to `C=CC/C=C/C/C=C/CCCCCCCc1cccc(O)c1C(=O)O`, the TGI with HOP-62 NSCLC was 67.5 µM; with M14 melanoma, greater than 100 µM; with NCI-H23 lung, 75.9 µM; in the experiment with OVCAR-3 ovarian it was greater than 100 µM; in the experiment on OVCAR-8 ovarian it was greater than 100 µM; in the experiment with SF-295 CNS it was greater than 100 µM. The figures for the TGI in the experiment with SK-OV-3 ovarian, in the experiment with SR leukemia and with SW-620 colon were 79.8 µM, greater than 100 µM and greater than 100 µM, respectively.

For `CC1=C(O)C(=O)C=C2C1=CC=C1[C@@]2(C)CC[C@@]2(C)[C@@H]3C[C@](C)(C(=O)O)CC[C@]3(C)CC[C@]12C`, the TGI with HOP-62 NSCLC stood at 0.963 µM; in the experiment with M14 melanoma, 0.141 µM; with NCI-H23 lung it was 0.181 µM; with OVCAR-3 ovarian it was 0.0941 µM; with OVCAR-8 ovarian it was 0.0712 µM; with SF-295 CNS, 0.54 µM. Further, the TGI came out at 0.228 µM in the experiment with SK-MEL-5 melanoma, 1 µM with SK-OV-3 ovarian and 0.0336 µM with SR leukemia.

For the compound `CC(=O)N[C@H]1CSSC[C@@H](C(N)=O)NC(=O)[C@H](C(C)C)NC(=O)[C@H](C)NC(=O)[C@H](Cc2cnc[nH]2)NC1=O`, the GI50 with HOP-62 NSCLC, in the experiment on M14 melanoma, with NCI-H23 lung, with OVCAR-3 ovarian, in the experiment with OVCAR-8 ovarian and in the experiment on SF-295 CNS was greater than 100 µM throughout. Further, the GI50 in the experiment with SK-MEL-5 melanoma, in the experiment with SK-OV-3 ovarian and with SR leukemia was greater than 100 µM each time. Moreover, the total growth inhibition concentration (TGI) in the experiment with HOP-62 NSCLC, in the experiment on M14 melanoma, with NCI-H23 lung, in the experiment on OVCAR-3 ovarian, in the experiment on OVCAR-8 ovarian and in the experiment on SF-295 CNS was greater than 100 µM throughout. The TGI in the experiment on SK-MEL-5 melanoma, in the experiment on SK-OV-3 ovarian and with SR leukemia was greater than 100 µM throughout.

For the compound `COc1cccc2c(=O)c3c(sc12)c(N1CCNCC1)nc1ccccc13`, the GI50 in the experiment on HOP-62 NSCLC was 1.87 µM; in the experiment with M14 melanoma, 1.86 µM; in the experiment on NCI-H23 lung, 1.62 µM; in the experiment on OVCAR-3 ovarian, 1.67 µM; in the experiment on OVCAR-8 ovarian, 2.43 µM; in the experiment with SF-295 CNS, 1.82 µM. The GI50 in the experiment on SK-MEL-5 melanoma was 1.7 µM; in the experiment with SR leukemia, 0.622 µM; in the experiment with SW-620 colon, 1.49 µM. Further, the TGI with HOP-62 NSCLC was 4.3 µM; with M14 melanoma, 3.48 µM; with NCI-H23 lung, 3.1 µM; in the experiment with OVCAR-3 ovarian, 3.12 µM; in the experiment with OVCAR-8 ovarian, 6.5 µM; with SF-295 CNS, 3.37 µM. Also, the TGI in the experiment with SK-MEL-5 melanoma is 3.09 µM; in the experiment with SR leukemia, greater than 100 µM; in the experiment on SW-620 colon, 3.09 µM.

On to `COc1c(CCl)cc(-c2cc(=O)c3ccccc3s2)cc1CCl`, for which the TGI in the experiment on HOP-62 NSCLC is 32.6 µM; in the experiment with M14 melanoma, greater than 100 µM; in the experiment on NCI-H23 lung, greater than 100 µM; with OVCAR-3 ovarian, greater than 100 µM; in the experiment on OVCAR-8 ovarian, greater than 100 µM; in the experiment on SF-295 CNS, 36.1 µM. For the same compound, the TGI in the experiment with SK-MEL-5 melanoma is greater than 100 µM; with SK-OV-3 ovarian it was greater than 60.2 µM; in the experiment with SR leukemia it was greater than 100 µM.

Turning to `Cc1c(C(=O)/C=C/c2ccccc2)[n+](=O)c2ccccc2n1[O-]`, the TGI with HOP-62 NSCLC is 37.9 µM; in the experiment with M14 melanoma, 29.1 µM; with NCI-H23 lung it was 29.5 µM; with OVCAR-3 ovarian it was 30.6 µM; in the experiment on OVCAR-8 ovarian, 28.7 µM; in the experiment on SF-295 CNS, 31.5 µM. Further, the concentration for total growth inhibition (TGI) in the experiment on SK-OV-3 ovarian amounted to 42.7 µM; in the experiment on SR leukemia, 66 µM; in the experiment on SW-620 colon, 28.3 µM.

`Nc1ccc2cc3ccc(N)cc3nc2c1`: the GI50 in the experiment with HOP-62 NSCLC is 0.795 µM; in the experiment with M14 melanoma, 1.77 µM [middle of 4 runs]; in the experiment with NCI-H23 lung, 1.58 µM [middle of 4 runs]; in the experiment on OVCAR-3 ovarian, 1.7 µM; in the experiment with OVCAR-8 ovarian it was 0.599 µM; in the experiment on SF-295 CNS, 1.47 µM. The TGI in the experiment with SF-295 CNS was 7.12 µM [middle of 4 runs]; with SK-MEL-5 melanoma it was 2.74 µM and 4.33 µM and 2.93 µM; in the experiment with SR leukemia, 14.1 µM and 2.1 µM and 6.96 µM.

As for `C1CCC([PH+](C2CCCCC2)C2CCCCC2[PH+](C2CCCCC2)C2CCCCC2)CC1.O=C(C1[CH-]CCCC1)C1CCCC[N-]1.[Au]` (centres undefined), the GI50 is 0.323 µM in the experiment with HOP-62 NSCLC; 0.26 µM in the experiment with M14 melanoma; 0.272 µM in the experiment on OVCAR-3 ovarian; 0.245 µM in the experiment with OVCAR-8 ovarian; 0.262 µM in the experiment on SF-295 CNS; 0.252 µM in the experiment on SK-MEL-5 melanoma. The 50% growth inhibitory concentration (GI50) with SK-OV-3 ovarian is 0.33 µM; with SR leukemia it was 0.329 µM. The TGI was 2.96 µM in the experiment on HOP-62 NSCLC; 1.4 µM in the experiment on M14 melanoma; 1.19 µM with OVCAR-3 ovarian; greater than 100 µM in the experiment with OVCAR-8 ovarian; 1.09 µM in the experiment with SF-295 CNS; 0.661 µM with SK-MEL-5 melanoma. Also, the results for the TGI in the experiment with SK-OV-3 ovarian and in the experiment on SR leukemia were 1.4 µM and greater than 100 µM, respectively.

`CCCCCCCCCCCCCCCCCCOc1ccccc1CC(=O)OCC[N+]1(C)CCCC1`: the GI50 in the experiment on M14 melanoma is 2.28 µM; in the experiment with OVCAR-3 ovarian, 1.63 µM; in the experiment with SF-295 CNS, 2.83 µM; in the experiment with SK-OV-3 ovarian it was 18.9 µM; in the experiment with SR leukemia, 2.47 µM. The TGI in the experiment on M14 melanoma came out at 5.46 µM; in the experiment on OVCAR-3 ovarian, 3.13 µM; with SF-295 CNS, 8.8 µM; with SK-OV-3 ovarian, 38.8 µM; with SR leukemia, 6.92 µM.

For `N#CC1CC2(C1)OCCS2` (centres undefined), the TGI in the experiment with HOP-62 NSCLC, in the experiment with M14 melanoma, in the experiment with NCI-H23 lung, in the experiment with OVCAR-3 ovarian, in the experiment on OVCAR-8 ovarian and in the experiment with SF-295 CNS was greater than 100 µM in each case. The TGI with SR leukemia and in the experiment on SW-620 colon was greater than 100 µM each time.

As for `O=C1CSC(c2ccc(Cl)cc2Cl)N1c1ccc(F)cc1` (centres undefined), the GI50 in the experiment with HOP-62 NSCLC is 18 µM; with M14 melanoma, 15.2 µM; with NCI-H23 lung it was 16.6 µM; in the experiment on OVCAR-3 ovarian, 17.2 µM; in the experiment with OVCAR-8 ovarian, 19 µM; in the experiment with SF-295 CNS, 18.3 µM. Besides, the GI50 with SK-MEL-5 melanoma was 24.6 µM; in the experiment on SR leukemia, 19.6 µM; in the experiment on SW-620 colon, 21.7 µM. Moreover, the TGI in the experiment on HOP-62 NSCLC was 32.3 µM; in the experiment on M14 melanoma, 28.8 µM; in the experiment on NCI-H23 lung, 31.2 µM; with OVCAR-3 ovarian it was 32.1 µM; with OVCAR-8 ovarian, 35.7 µM; with SF-295 CNS it was 37.2 µM. For the same compound, the results for the TGI with SK-MEL-5 melanoma, with SR leukemia and in the experiment with SW-620 colon were 39.8 µM, 40.9 µM and 37.5 µM, respectively.

As to `COc1cc(NC(C)CCCN)c2nccc(C)c2c1` (centres undefined), the TGI was 34 µM in the experiment with HOP-62 NSCLC; 33.7 µM in the experiment on M14 melanoma; greater than 100 µM with NCI-H23 lung; 67.9 µM in the experiment with OVCAR-3 ovarian; 35.4 µM in the experiment with SF-295 CNS; 82.8 µM in the experiment on SK-MEL-5 melanoma. In addition, the TGI with SK-OV-3 ovarian was 58.5 µM; with SR leukemia it was 53.1 µM.

As to `CCCCCCCCCCCC(=O)OCC1OC(OC)C(NC(=O)N(CCCl)N=O)C(O)C1O` (centres undefined), the TGI was 42.9 µM with HOP-62 NSCLC; 24.5 µM in the experiment with M14 melanoma; 33.4 µM in the experiment on OVCAR-3 ovarian; 41 µM in the experiment on OVCAR-8 ovarian; 20.8 µM in the experiment with SF-295 CNS; 29.9 µM with SK-MEL-5 melanoma. For the same compound, the TGI was found to be 18.6 µM in the experiment with SR leukemia and 24.5 µM with SW-620 colon.

For the compound `O=c1c2ccccc2c(=O)c2c1[nH]c1c(-c3ccccc3)c(-c3ccccc3)c(=O)c12`, the GI50 was 3.28 µM with HOP-62 NSCLC; 2.41 µM in the experiment with M14 melanoma; 3.72 µM with NCI-H23 lung; 1.92 µM with OVCAR-3 ovarian; 2.79 µM with OVCAR-8 ovarian; 2.34 µM in the experiment on SF-295 CNS. Also, the GI50 is 2.05 µM in the experiment on SK-MEL-5 melanoma, 2.15 µM in the experiment on SR leukemia and 3.85 µM in the experiment on SW-620 colon. Besides, the TGI in the experiment on HOP-62 NSCLC worked out at 9.15 µM; in the experiment on M14 melanoma, 5.63 µM; in the experiment on NCI-H23 lung it was 14.4 µM; in the experiment with OVCAR-3 ovarian it was 4.48 µM; in the experiment with OVCAR-8 ovarian, 9.33 µM; with SF-295 CNS, 6.24 µM. In addition, the TGI came to 4.03 µM with SK-MEL-5 melanoma, 13.5 µM in the experiment with SR leukemia and 14.1 µM in the experiment on SW-620 colon.

On to `O=c1cc(NC2CCN(CCCc3ccccc3)CC2)c2cc(Cl)ccc2o1`, for which the GI50 is 17.3 µM with HOP-62 NSCLC; 14.6 µM with NCI-H23 lung; 6.6 µM in the experiment with OVCAR-3 ovarian; 12.1 µM with OVCAR-8 ovarian; 15.1 µM in the experiment with SF-295 CNS; 12 µM in the experiment with SK-MEL-5 melanoma. The GI50 with SK-OV-3 ovarian was 16.1 µM; with SR leukemia, 6.81 µM; in the experiment with SW-620 colon it was 15 µM. Moreover, the TGI with HOP-62 NSCLC was determined as 33.3 µM; in the experiment with NCI-H23 lung it was 30.3 µM; in the experiment on OVCAR-3 ovarian, 19.4 µM; with OVCAR-8 ovarian it was 27.2 µM; with SF-295 CNS it was 29.9 µM; with SK-MEL-5 melanoma, 24.4 µM. Further, the TGI came out at 29.8 µM with SK-OV-3 ovarian, 28.3 µM in the experiment on SR leukemia and 30.5 µM in the experiment with SW-620 colon.
